The record followed here is patent US10906905B2, “Five-membered heteroaryl ring bridged ring derivative, preparation method therefor and medical use thereof” (Jiangsu Hengrui Medicine Co., Ltd., priority 2016, dated 2021).

The target in one test is TGFβRI kinase ALK5 (Homo sapiens (Human), UniProt P36897). The experiment in a line: Inhibition of TGFβRI kinase ALK5 activity (TGFβRI kinase assay kit, ADP-Glo). The test is classed as biochemical. The conditions noted are these: ATP 50 μM; read-out: IC50 of inhibition effect on TGFβRI kinase ALK5 activity. The protocol: The inhibition effect of TGFβRI kinase activity in vitro was determined by the following method.
The inhibition effect of the compounds of the present invention on TGFβRI kinase ALK5 activity was determined by the following experimental method:
TGFβRI kinase assay kit (V4093, Promega) was used to assay enzyme activity. 2 μl of enzyme solution (the final concentration of enzyme in the reaction system was 2 ng/μL) formulated with reaction buffer (40 mM Tris pH 7.5, 20 mM MgCl2, 0.1 mg/ml BSA), 1 μl of a 3-fold gradient dilution of the compounds dissolved in 5% DMSO, and 2 μl of a mixed solution of ATP and TGFβRI substrate peptide (the final concentration of ATP was 50 μM, and the final concentration of substrate was 0.2 μg/μL) were added successively to a 384-well plate (4514, Corning). After reaction at 27° C. for 2.5 hours, 5 μl of ADP-Glo solution in the kit was added to each well, then the plate was placed at 27° C. for 40 minutes. 10 μl of kinase assay reagent was then added to each well, then the plate was placed at 27° C. for 30 minutes. The chemiluminescence signal values were measured with a Victor 3 (PerkinElmer) multi-function microplate reader. The IC50 values of the compounds for enzyme inhibition were calculated using Graphpad prism software based on each concentration of the compound and the corresponding signal value thereof.
Background: ADP-Glo turns the ADP formed in a reaction into a luminescent signal.

The subject of test [1] is Smad signaling pathway of TGFβRI. The experiment in a line: Inhibition of Smad signaling pathway of TGFβRI (3TP-lux luciferase reporter in HepG2 cell). The conditions noted are these: Homo sapiens, read-out: IC50 on the inhibition of Smad signaling pathway of TGFβRI. Type of test: cell-based. The protocol:
The inhibition effect of the compounds of the present invention on Smad signaling pathway of TGFβRI was determined by the following in vitro test.
The inhibition effect of the compounds of the present invention on Smad signaling pathway of TGFβRI was determined by the following experimental method:
The seeding density is 2.5×10^4 cells/well. The cells were incubated overnight at 37° C., 5% CO2. Each well was replaced with fresh EMEM medium containing 10% FBS. […] The cells were further incubated for 24 hours at 37° C., 5% CO2. Each well was replaced with 90 μL of EMEM medium containing 0.5% FBS, then the cells were starved for 6 hours. The compounds were formulated as a 20 mM stock solution, which was diluted in gradient to a 400× concentration with 100% DMSO, and further 40-fold diluted with EMEM containing 0.5% FBS. The cell culture plate was taken out, then 10 μl of diluted compound or control (0.25% DMSO) was added to each well respectively. The plate was shaken gently, then incubated for 18 hours in an incubator at 37° C., 5% CO2. Finally, 100 μl of detection reagent ONE-Glo™ Luciferase Assay (E6110, Promega) was added to each well, and the plate was placed in dark at room temperature for 10 minutes. The chemiluminescence signal values were measured with a Victor 3.0 (PerkinElmer). The IC50 values of the compounds were calculated using Graphpad Prism software based on each concentration of the compound and the corresponding signal value thereof.
For orientation: Reporter assays use an easily measured gene product as a stand-in for the process of interest.

[2] abbreviates: HepG2 cell, 3TP-lux plasmid, 18 hours.

Like-named read-outs stand apart in the source and are kept apart here.

Chain of TGFβRI kinase ALK5 (P36897 34-503): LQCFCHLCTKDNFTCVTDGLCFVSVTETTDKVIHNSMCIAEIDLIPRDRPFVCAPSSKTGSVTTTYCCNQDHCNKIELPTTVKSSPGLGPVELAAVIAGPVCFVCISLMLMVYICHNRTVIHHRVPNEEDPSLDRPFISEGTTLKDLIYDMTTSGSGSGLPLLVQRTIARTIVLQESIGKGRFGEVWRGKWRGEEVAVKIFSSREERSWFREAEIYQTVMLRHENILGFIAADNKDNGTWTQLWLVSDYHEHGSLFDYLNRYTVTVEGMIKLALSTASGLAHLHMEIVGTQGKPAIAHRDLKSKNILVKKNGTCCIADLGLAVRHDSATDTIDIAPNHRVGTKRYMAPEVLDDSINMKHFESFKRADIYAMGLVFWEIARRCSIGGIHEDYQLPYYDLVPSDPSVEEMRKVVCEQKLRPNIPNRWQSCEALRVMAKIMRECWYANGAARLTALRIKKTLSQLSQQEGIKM

The term IC50 denotes the midpoint of a concentration-inhibition curve. Consider `Cc1cccc(-c2nc3n(c2-c2ccc4nnc(C(N)=O)n4c2)[C@@H]2CC[C@H]3C2)n1` [Example 2-2, 6-((5R,8S)-2-(6-Methylpyridin-2-yl)-5,6,7,8-tetrahydro-5,8-methanoimidazo[1,2-a]pyridin-3-yl)[1,2,4]triazolo[4,3-a]pyridine-3-carboxamide], for which the IC50 on TGFβRI kinase ALK5 was determined as 3 nM; in test [1] (setting [2]), 36 nM. Turning to `Cc1cccc(-c2nc3n(c2-c2ccnc(-c4ccc(S(C)(=O)=O)cc4)c2)C2CCC3C2)n1` (stereo not drawn) [Example 3, 2-(6-Methylpyridin-2-yl)-3-(2-(4-(methylsulfonyl)phenyl)pyridin-4-yl)-5,6,7,8-tetrahydro-5,8-methanoimidazo[1,2-a]pyridine], the IC50 in test [1] (setting [2]) stood at 58 nM. For `Cc1cccc(-c2nc3n(c2-c2ccnc(NCCO)c2)C2CCC3C2)n1` (stereo not drawn) [Example 5, 2-((4-(2-(6-Methylpyridin-2-yl)-5,6,7,8-tetrahydro-5,8-methanoimidazo[1,2-a]pyridin-3-yl)pyridin-2-yl)amino)ethanol], the IC50 was found to be 59 nM on TGFβRI kinase ALK5 and 39 nM in test [1] (setting [2]).

For `Cc1cccc(-c2nc3n(c2-c2ccnc(NCCO)c2)[C@H]2CC[C@@H]3C2)n1` [Example 5-1, 2-((4-((5S,8R)-2-(6-Methylpyridin-2-yl)-5,6,7,8-tetrahydro-5,8-methanoimidazo[1,2-a]pyridin-3-yl)pyridin-2-yl)amino)ethanol], the 50% inhibitory concentration (IC50) turned out to be 46 nM at TGFβRI kinase ALK5 and 75 nM in test [1] (HepG2, 18 h). For the molecule `Cc1cccc(-c2nc3n(c2-c2ccnc(-c4ccc(S(N)(=O)=O)cc4)c2)[C@H]2CC[C@@H]3C2)n1` [Example 13-1, 4-(4-((5S,8R)-2-(6-Methylpyridin-2-yl)-5,6,7,8-tetrahydro-5,8-methanoimidazo[1,2-a]pyridin-3-yl)pyridin-2-yl)benzenesulfonamide], the IC50 on TGFβRI kinase ALK5 was found to be 11 nM; in test [1] (setting [2]) it was 37 nM. Take `Cc1cccc(-c2nc3n(c2-c2ccnc(Nc4ccc(S(N)(=O)=O)cc4)c2)C2CCC3C2)n1` (stereo not drawn) [Example 14, 4-((4-(2-(6-Methylpyridin-2-yl)-5,6,7,8-tetrahydro-5,8-methanoimidazo[1,2-a]pyridin-3-yl)pyridin-2-yl)amino)benzenesulfonamide]: the IC50 was 31 nM on TGFβRI kinase ALK5 and 81 nM in test [1] (HepG2, 18 h). In the case of `Cc1cccc(-c2nc3n(c2-c2ccc4nccc(OC5CCNCC5)c4c2)C2CCC3C2)n1` (stereo not drawn) [Example 15, 2-(6-Methylpyridin-2-yl)-3-(4-(piperidin-4-yloxy)quinolin-6-yl)-5,6,7,8-tetrahydro-5,8-methanoimidazo[1,2-a]pyridine], the IC50 on TGFβRI kinase ALK5 is 60 nM. `Cc1cccc(-c2nc3n(c2-c2ccnc(-c4ccc(C(=O)NC5CCOCC5)cc4)c2)C2CCC3C2)n1` (stereo not drawn) [Example 17, 4-(4-(2-(6-Methylpyridin-2-yl)-5,6,7,8-tetrahydro-5,8-methanoimidazo[1,2-a]pyridin-3-yl)pyridin-2-yl)-N-(tetrahydro-2H-pyran-4-yl)benzamide]: the IC50 on TGFβRI kinase ALK5 is 38 nM. Regarding `Cc1cccc(-c2nc3n(c2-c2ccnc(NC[C@H](C)O)c2)[C@H]2CC[C@@H]3C2)n1` [Example 18-1, (S)-1-((4-((5S,8R)-2-(6-Methylpyridin-2-yl)-5,6,7,8-tetrahydro-5,8-methanoimidazo[1,2-a]pyridin-3-yl)pyridin-2-yl)amino)propan-2-ol], the IC50 at TGFβRI kinase ALK5 turned out to be 80 nM; in test [1] (setting [2]), 88 nM.

For `Cc1cccc(-c2nc3n(c2-c2ccnc(-c4ccc(C(=O)O)cc4)c2)C2CCC3C2)n1` (stereo not drawn) [Example 19, 4-(4-(2-(6-Methylpyridin-2-yl)-5,6,7,8-tetrahydro-5,8-methanoimidazo[1,2-a]pyridin-3-yl)pyridin-2-yl)benzoic acid], at TGFβRI kinase ALK5, the IC50 is 87 nM.

Regarding `Cc1cccc(-c2nc3n(c2-c2ccc(=O)n(C)c2)C2CCC3C2)n1` (stereo not drawn) [Example 20, 1-Methyl-5-(2-(6-methylpyridin-2-yl)-5,6,7,8-tetrahydro-5,8-methanoimidazo[1,2-a]pyridin-3-yl)pyridin-2(1H)-one], the IC50 in test [1] (setting [2]) came to 53 nM. Take `Cc1cccc(-c2nc3n(c2-c2ccnc(OCCO)c2)C2CCC3C2)n1` (stereo not drawn) [Example 26, 2-((4-(2-(6-Methylpyridin-2-yl)-5,6,7,8-tetrahydro-5,8-methanoimidazo[1,2-a]pyridin-3-yl)pyridin-2-yl)oxy)ethanol]: the IC50 in test [1] (setting [2]) was 86 nM. As for `Cc1cccc(-c2nc3n(c2-c2ccnc4ccc(C(N)=O)cc24)C2CCC3C2)n1` (stereo not drawn) [Example 29, 4-(2-(6-Methylpyridin-2-yl)-5,6,7,8-tetrahydro-5,8-methanoimidazo[1,2-a]pyridin-3-yl) quinoline-6-carboxamide], the IC50 at TGFβRI kinase ALK5 came to 85 nM. Consider `Cc1cccc(-c2nc3n(c2-c2ccnc(NC(=O)OC(C)(C)C)c2)C2CCC3C2)n1` (stereo not drawn) [Example 31, Tert-butyl (4-(2-(6-methylpyridin-2-yl)-5,6,7,8-tetrahydro-5,8-methanoimidazo[1,2-a]pyridin-3-yl)pyridin-2-yl)carbamate], for which, on TGFβRI kinase ALK5, the IC50 amounted to 55 nM. Take `Cc1cccc(-c2nc3n(c2-c2ccnc(N)c2)C2CCC3C2)n1` (stereo not drawn) [Example 32, 4-(2-(6-Methylpyridin-2-yl)-5,6,7,8-tetrahydro-5,8-methanoimidazo[1,2-a]pyridin-3-yl)pyridin-2-amine]: the IC50 at TGFβRI kinase ALK5 came to 9 nM; in test [1] (HepG2, 18 h) it was 8 nM. `Cc1cccc(-c2nn3c(c2-c2ccnc4ccc(C(N)=O)cc24)C2CCC3CC2)n1` [Example 34, 4-(2-(6-Methylpyridin-2-yl)-4,5,6,7-tetrahydro-4,7-ethanopyrazolo[1,5-a]pyridin-3-yl)quinoline-6-carboxamide]: the IC50 on TGFβRI kinase ALK5 worked out at 12 nM.

Turning to `Cc1cccc(-c2nn3c(c2-c2ccnc4ccc(C(N)=O)cc24)C2CCC3C2)n1` (stereo not drawn) [Example 35, 4-(2-(6-Methylpyridin-2-yl)-4,5,6,7-tetrahydro-4,7-methanopyrazolo[1,5-a]pyridin-3-yl)quinoline-6-carboxamide], the IC50 at TGFβRI kinase ALK5 turned out to be 12 nM. With `Cc1cccc(-c2nn3c(c2-c2ccnc(NCCO)c2)C2CCC3CC2)n1` [Example 37, 2-((4-(2-(6-Methylpyridin-2-yl)-4,5,6,7-tetrahydro-4,7-ethanopyrazolo[1,5-a]pyridin-3-yl)pyridin-2-yl)amino)ethanol], in test [1] (setting [2]), the IC50 came to 61 nM. With `NC(=O)c1ccc(-c2cc(-c3c(-c4ccc(F)cn4)nc4n3[C@H]3CC[C@@H]4C3)ccn2)cc1` [Example 41-1, 4-(4-((5S,8R)-2-(5-Fluoropyridin-2-yl)-5,6,7,8-tetrahydro-5,8-methanoimidazo[1,2-a]pyridin-3-yl)pyridin-2-yl)benzamide], on TGFβRI kinase ALK5, the IC50 was determined as 28 nM. Turning to `Cc1cccc(-c2nc3n(c2-c2ccnc(-c4cnn(S(C)(=O)=O)c4)c2)C2CCC3C2)n1` (stereo not drawn) [Example 43, 2-(6-Methylpyridin-2-yl)-3-(2-(1-(methylsulfonyl)-1H-pyrazol-4-yl)pyridin-4-yl)-5,6,7,8-tetrahydro-5,8-methanoimidazo[1,2-a]pyridine], the IC50 on TGFβRI kinase ALK5 was 21 nM; in test [1] (HepG2, 18 h) it was 11 nM. Consider `CS(=O)(=O)c1ccc(-c2cc(-c3c(-c4ccccn4)nc4n3[C@H]3CC[C@@H]4C3)ccn2)cc1` [Example 46-1, (5S,8R)-3-(2-(4-(Methylsulfonyl)phenyl)pyridin-4-yl)-2-(pyridin-2-yl)-5,6,7,8-tetrahydro-5,8-methanoimidazo[1,2-a]pyridine], for which the half-maximal inhibitory concentration (IC50) worked out at 34 nM on TGFβRI kinase ALK5 and 79 nM in test [1] (setting [2]).
